{
  "source": "patent US10287328B2",
  "about": "“Treatment of diabetes, toll-like receptor 4 modulators and methods for using the same” (KeMyth Biotech Co., Ltd., priority 2016, dated 2019)",
  "key": {"HUVECs [1]": {"tested_on": "HUVECs", "type": "cell-based, human", "details": "for toxicity to HUVECs (FIG. 15): MTS assay, 1, 10 or 100 nM, statement for high concentration (100 nM)", "description": "Cell viability was detected by a methanethiosulfonate (MTS) assay. In brief, 2×10^4 HUVECs were seeded to a 48-well plates in 100 μl endothelial cell medium (ECM, ScienCell Research Laboratory, Cat. 1001, USA) per well and incubated for 24 hrs. The media was removed and the cells were then incubated with media having 2% fetal bovine serum (FBS), in the absence or presence of various peptides, such as PLY, PLY123, PLY4, C70PLY4 or N35PLY4, at a concentration of 1, 10 or 100 nM. After incubation for 18 hours, the media was removed and 20 μl MTS reagents (20%) were added to each well in the final volume of 100 μl and placed in incubator for 1 hours. The optical density was measured at 490 nm using a plate reader."}, "[2]": {"tested_on": "neointima formation of aorta", "assay": "Neointima formation of aorta (HE stain) in STZ-treated HFD-fed rats", "type": "in vivo", "description": "The ascending part of aorta were taken from mice, including control health mice and HFD induced diabetic mice, with and without treatment of C70PLY4, and kept in 10% formalin buffered for 24 h. The specimens were routinely embedded in paraffin blocks and cut in transversal sections (3 μm). The slides were stained with hematoxylin and eosin. The specimens were analyzed with light microscope.\nThe present study determined if C70PLY4 attenuates the status of atherosclerosis in HFD-fed rats."}, "HUVECs [3]": {"tested_on": "HUVECs", "assay": "Cell apoptosis, TUNEL assay in HUVECs", "type": "cell-based, human", "details": "positive control of TUNEL and caspase-3 assays", "description": "Cell apoptosis was detected by using commercial terminal deoxynucleotidyl transferase-dUTP nick end labeling (TUNEL) and caspase-3 activity kits, i.e., Apo-BrdU in Situ DNA Fragmentation Assay Kit (BioVision) and NucView™ 488 Caspase-3 Enzyme Substrate (Biotium). In brief, after incubation with M199 media in the presence or absence of […] various PLY peptides, at 37° C., 5% CO2 for 1 hour, HUVECs were washed with PBS and fixed with fixation buffer on ice for 20 min. Cells were then soaked in 70% alcohol for 1 hr. After 2 times of wash by washing buffer, cells were incubated in DNA labeling solution for 60 min at 37° C. Cells were then treated with rinse buffer and incubated with antibody buffer for 30 min at room temperature. The cell nuclei were stained with propidium iodide for 30 min. Samples were observed by fluorescent microscopeand photographed charge-coupled device (CCD) camera."}, "MD2/TLR4 interaction": {"target": "MD2/TLR4 interaction (Homo sapiens, UniProt O00206)", "sequence (O00206 24-631)": "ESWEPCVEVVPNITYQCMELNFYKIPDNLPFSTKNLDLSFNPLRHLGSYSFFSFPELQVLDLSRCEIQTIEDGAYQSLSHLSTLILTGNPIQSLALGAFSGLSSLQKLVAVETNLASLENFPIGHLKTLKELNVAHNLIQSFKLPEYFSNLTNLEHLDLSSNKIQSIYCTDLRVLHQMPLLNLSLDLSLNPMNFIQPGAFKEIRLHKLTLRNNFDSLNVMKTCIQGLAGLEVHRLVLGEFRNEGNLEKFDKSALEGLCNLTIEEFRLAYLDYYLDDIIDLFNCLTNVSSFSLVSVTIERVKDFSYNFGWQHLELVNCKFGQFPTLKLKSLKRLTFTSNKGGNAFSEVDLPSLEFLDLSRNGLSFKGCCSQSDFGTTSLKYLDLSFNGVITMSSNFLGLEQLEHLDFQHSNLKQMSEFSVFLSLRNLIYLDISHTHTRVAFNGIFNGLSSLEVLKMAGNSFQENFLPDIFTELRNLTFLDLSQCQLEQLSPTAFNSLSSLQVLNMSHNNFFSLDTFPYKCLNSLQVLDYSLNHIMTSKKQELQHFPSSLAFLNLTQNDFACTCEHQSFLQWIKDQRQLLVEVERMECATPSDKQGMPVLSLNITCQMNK", "assay": "In vitro protein competition binding assay for MD2/TLR4 interaction", "details": "MD2 50 nM, peptide 50 μM to 3.05 nM", "description": "The recombinant TLR4 protein was diluted in PBS (2 μg/mL) and immobilized on a 96-well (100 ng/well) ELISA plate by incubation at 37° C. for 2 h. The wells were washed three times with PBS, followed by blocking with the addition of 300 μL 5% BSA in PBS at ambient temperature overnight. Then, the plate was rewashed three times with PBST before performed competition binding assay. The binding of MD2 (50 nM) to TLR4 was competed by adding various amounts (2-fold serial dilution from 50 μM to 3.05 nM) of C70PLY4, N35PLY4, or M50PLY4 peptide, and the residual binding was examined using anti-MD2 and anti-mouse-IgG-HRP antibodies diluted in 1% BSA as described in herein."}, "recombinant TLR4 protein": {"target": "recombinant TLR4 protein (Homo sapiens, UniProt O00206)", "sequence (O00206 24-839)": "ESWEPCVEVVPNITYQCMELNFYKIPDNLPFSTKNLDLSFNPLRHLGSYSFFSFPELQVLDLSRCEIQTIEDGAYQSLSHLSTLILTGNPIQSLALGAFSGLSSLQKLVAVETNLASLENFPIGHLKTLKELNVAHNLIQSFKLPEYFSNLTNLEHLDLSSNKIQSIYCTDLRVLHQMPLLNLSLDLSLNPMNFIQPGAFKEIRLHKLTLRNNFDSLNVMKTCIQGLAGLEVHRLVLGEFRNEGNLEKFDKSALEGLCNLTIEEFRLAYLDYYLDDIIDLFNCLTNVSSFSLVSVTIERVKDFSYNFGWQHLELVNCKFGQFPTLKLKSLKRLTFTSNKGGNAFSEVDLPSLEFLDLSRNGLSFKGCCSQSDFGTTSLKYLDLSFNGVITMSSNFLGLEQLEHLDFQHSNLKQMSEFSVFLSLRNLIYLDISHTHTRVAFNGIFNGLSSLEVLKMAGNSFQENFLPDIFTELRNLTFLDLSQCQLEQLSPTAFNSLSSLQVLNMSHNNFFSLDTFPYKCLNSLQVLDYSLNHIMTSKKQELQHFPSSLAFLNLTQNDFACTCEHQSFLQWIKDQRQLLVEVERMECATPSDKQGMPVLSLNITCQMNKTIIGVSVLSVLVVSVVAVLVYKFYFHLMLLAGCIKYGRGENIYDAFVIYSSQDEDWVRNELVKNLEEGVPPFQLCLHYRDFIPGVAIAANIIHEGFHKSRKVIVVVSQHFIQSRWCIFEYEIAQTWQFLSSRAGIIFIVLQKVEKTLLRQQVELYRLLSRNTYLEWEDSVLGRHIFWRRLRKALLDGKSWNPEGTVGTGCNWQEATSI", "assay": "In vitro protein binding assay for MD2 and TLR4 (ELISA)", "details": "TLR4 2 μg/mL coated, MD2 133.3 to 0.065 nM; read-out: Kd, binding affinity to the TLR4 protein", "description": "The recombinant TLR4 protein was diluted in phosphate buffer saline (PBS) (2 μg/mL) and immobilized on a 96-well (100 ng/well) enzyme-linked immunosorbent assay (ELISA) plate by incubation at 37° C. for 2 h. The wells were washed three times with PBS, followed by blocking with the addition of 300 μL 5% bovine serum albumin (BSA) in PBS at ambient temperature overnight. Then, the plate was washed three times with PBST (PBS with 0.05% Tween 20 solution) before the addition of the recombinant MD2 protein solutions at various concentrations (2-fold serial dilution from 133.3 to 0.065 nM). The ligands (MD2) and TLR4 proteins were incubated at 37° C. for 2 h, and the plate was then washed three times with PBST, followed by the addition of 100 μL anti-MD2 antibodies diluted in 1% BSA (1:1000). After incubation at ambient temperature for 1 h, the plate was washed with PBST three times, followed by the addition of 100 μL anti-mouse IgG-HRP antibodies diluted in 1% BSA (1:2000). After incubation at ambient temperature for 1 h, the plate was washed with PBST three times, followed by the addition of 100 μL of the HRP substrate (i.e. 3,3′,5,5′-tetramethylbenzidine, TMB) to each well. […] The optical density (OD450) in each well was determined using an ELISA plate reader. […]"}, "TLR4": {"tested_on": "TLR4", "assay": "LPS-induced PMN transendothelial migration, PMNs from wild type C3H/HeN mice", "type": "cell-based", "details": "for LPS induced PMN migration (FIGS. 11-12): WT mice model", "description": "(§1) To obtain mice neutrophils from TLR4-deficient [TLR4(−/−)] C3H/HeJ mice and wild type C3H/HeN mice, inflammation was induced by 0.1 ml of uric acid solution into the peritoneal cavity of the mouse. The uric acid solution (noncrystalline form) was prepared by mixing with saline (10% [wt/vol]) and sonicated for 10 min. Immediately before inoculation, the milky white precipitated uric acid solution was shaken vigorously. Peritoneal exudate cells were harvested 4, 18, or 24 h after injection by two lavages of the peritoneal cavity with 5 ml of cold phosphate-buffered saline (PBS; total volume, 10 ml). Uric acid-induced peritoneal cells (UAPMN) were washed by centrifugation at 200×g for 10 min at 4° C. Followed by hypotonic lysis to eliminate red blood cells, centrifugation and an additional wash were performed. The cells were then resuspended in Krebs-Ringer phosphate buffer (KRG; pH 7.3). The numbers and populations of peritoneal exudate cells were determined by staining the nuclei with Turk reagent and by cytospin centrifugation followed by May-Grünwald-Giemsa staining, respectively. Uric acid injection into the peritoneal cavity gave a yield of 1 to 2×10^7 cells/mouse depending on time of incubation (4 hr). The levels of purity of the uric acid-induced PMN were 95% after 4 h postinjection. Viability of the isolated neutrophils exceeded 95% as determined by trypan blue exclusion. The PMN from TLR4(−/−) C3H/HeJ mice and wild type C3H/HeN mice were then used for PMN transmigration Assay.\nNeutrophils from human were isolated blood that was drawn in a syringe containing preservative-free heparin (20 U/ml final), and mixed with an equal volume of PBS containing 3% dextran and then incubated for 20 min at room temperature. The leukocyte-rich plasma (upper layer) was collected and pellet cells was obtained from the plasma by centrifuge and resuspended in 0.9% NaCl. Layer 10 ml Ficoll-Hypaque solution beneath the cell suspension. After centrifuge 1500×g for 20 min, aspirate the Ficoll-Hypaque layer, leaving the neutrophil/RBC pellet. Cells were subjected to hypotonic lysis by resuspending each neutrophil/RBC pellet in cold 0.2% NaCl for 30 sec. At the end of this period, restore isotonicity by adding ice-cold 1.6% NaCl. After centrifuge, resuspend cells in ice-cold PBS/glucose buffer. Neutrophils from mice were isolated from the peritoneum as previously described. See, e.g., Rabes et al., Curr Top Microbiol Immunol 397:215-227 (2016). The cell concentration was adjusted to […]. The viability of the isolated neutrophils exceeded 95%, as determined by Trypan blue exclusion.\nTransendothelial migration was performed by using a Transwell system. Transwell filters were pre-seeded with HUVEC monolayers for 24 hrs and transferred to clean 24-well plates. HUVECs were washed twice with DPBS, 500 μl of ECM was added to the Transwell filter compartment and 10^6 neutrophils were then added in upper chamber. Transendothelial migration was stimulated by addition of LPS to the lower chamber to a final concentration of 1 μg/ml. Cells were incubated with the endothelial cells for 1 h at 37° C. At the conclusion of the incubation, migrated cells were collected from the lower chamber and counted in a hemacytometer in triplicate. Percent PMN transmigration was calculated by dividing the number of PMN recovered from the lower chamber by the number of PMN initially added.\nPMN transendothelial migration plays an important role in early stage of atherogenesis. […]."}, "[4]": {"tested_on": "PMNs isolated from TLR4(−/−) mice C3H/HeJ", "assay": "LPS-induced PMN transendothelial migration, PMNs from TLR4(-/-) C3H/HeJ mice", "type": "cell-based", "details": "LPS 1 μg/ml, HUVEC monolayer Transwell", "description": "as §1, with “Followed by hypotonic lysis to eliminate red blood cells, centrifugation and an additional wash were performed. The cells were then resuspended in Krebs-Ringer phosphate buffer (KRG; pH 7.3).” left out, “Uric acid injection into the peritoneal cavity gave a yield of 1 to 2×10^7 cells/mouse depending on time of incubation (4 hr). The levels of purity of the uric acid-induced PMN were 95% after 4 h postinjection.” left out, “The PMN from TLR4(−/−) C3H/HeJ mice and wild type C3H/HeN mice were then used for PMN transmigration Assay.” left out\nNeutrophils from human were isolated blood that was drawn in a syringe containing preservative-free heparin (20 U/ml final), and mixed with an equal volume of PBS containing 3% dextran and then incubated for 20 min at room temperature. […] The viability of the isolated neutrophils exceeded 95%, as determined by Trypan blue exclusion. […]"}},
  "note": "Where a SMILES comes first, the peptide text is derived from it.",
  "data": [
    {"compound": "CC[C@H](C)[C@H](NC(=O)[C@H](CCCCN)NC(=O)[C@@H](NC(=O)[C@H](CO)NC(=O)[C@H](CC(C)C)NC(=O)[C@H](CC(N)=O)NC(=O)[C@H](CCCNC(=N)N)NC(=O)[C@@H](NC(=O)[C@H](CC(N)=O)NC(=O)CNC(=O)[C@H](CCCCN)NC(=O)[C@H](CC(C)C)NC(=O)[C@@H]1CCCN1C(=O)[C@@H](NC(=O)[C@H](CO)NC(=O)[C@@H](NC(=O)[C@@H](NC(=O)[C@H](Cc1ccccc1)NC(=O)[C@H](Cc1c[nH]cn1)NC(=O)[C@H](C)NC(=O)[C@@H](NC(=O)[C@H](CC(C)C)NC(=O)[C@H](CC(=O)O)NC(=O)[C@@H](N)CCC(N)=O)[C@@H](C)O)[C@@H](C)O)[C@@H](C)O)[C@@H](C)CC)C(C)C)C(C)C)C(=O)N[C@@H](CCCNC(=N)N)C(=O)N[C@@H](CCC(=O)O)C(=O)N[C@@H](CS)C(=O)N[C@H](C(=O)NCC(=O)N[C@@H](CC(C)C)C(=O)N[C@@H](C)C(=O)N[C@@H](Cc1c[nH]c2ccccc12)C(=O)N[C@@H](CCC(=O)O)C(=O)N[C@@H](Cc1c[nH]c2ccccc12)C(=O)N[C@@H](Cc1c[nH]c2ccccc12)C(N)=O)[C@@H](C)O", "note": "[N35PLY4] (H-QDLTAHFTTSIPLKGNVRNLSVKIRECTGLAWEWW-NH2)", "values": [
      {"measurement": "toxicity to HUVECs (FIG. 15)", "setting": "HUVECs [1]", "result": "no toxic effects"}
    ]},
    {"compound": "CC(=O)N[C@@H](CS)C(=O)O", "note": "[NAC, N-acetylcycteine, reference compound]", "values": [
      {"measurement": "neointima formation of aorta induced by STZ", "setting": "[2]", "result": "partially improve the STZ effect on the neointima formation"}
    ]},
    {"compound": "CC[C@@]1(O)C(=O)OCc2c1cc1n(c2=O)Cc2cc3ccccc3nc2-1", "note": "[camptothecin, reference compound]", "values": [
      {"measurement": "apoptotic cells", "setting": "HUVECs [3]", "result": "about 60%"}
    ]},
    {"compound": "M50PLY4: peptide of 6th to 55th amino acid residues of C70PLY4 (407-456), lacking the N-terminal motif QDLTA, SEQ ID NO: 8 (HFTTSIPLKGNVRNLSVKIRECTGLAWEWWRTVYEKTDLPLVRKRTISIW) [reference compound]", "values": [
      {"measurement": "blocking capability for MD2 and TLR4 protein interaction (in words)", "setting": "MD2/TLR4 interaction", "result": "no competitive capability"}
    ]},
    {"compound": "MD2: recombinant MD2 protein, an extracellular protein associated with the extracellular domain of TLR4 protein", "values": [
      {"measurement": "Kd", "setting": "recombinant TLR4 protein", "result": "18.4 ± 3.9", "unit": "nM"}
    ]},
    {"compound": "N35PLY4m24L25K: N35PLY4 with double mutations, position 24 I to L and position 25 R to K, SEQ ID NO: 7 (QDLTAHFTTSIPLKGNVRNLSVKLKECTGLAWEWW)", "values": [
      {"measurement": "LPS induced PMN migration (FIGS. 11-12)", "setting": "TLR4", "result": "inhibitory effects"}
    ]},
    {"compound": "N35PLY4m25K (QDLTAHFTTSIPLKGNVRNLSVKIKECTGLAWEWW)", "values": [
      {"measurement": "LPS induced PMN migration (FIGS. 11-12)", "setting": "TLR4", "result": "inhibitory effects"}
    ]},
    {"compound": "full-length PLY: full length pneumococcal pneumolysin, 1-471 amino acid residues, SEQ ID NO: 1, prepared by recombinant technology [reference compound]", "values": [
      {"measurement": "cells survived", "setting": "HUVECs [1]; HUVECs, 100 nM, 18 hours, MTS", "result": 30, "unit": "%"},
      {"measurement": "toxicity to HUVECs (FIG. 15)", "setting": "HUVECs [1]", "result": "toxic to cells"},
      {"measurement": "PMNs migration, WT mice model (FIG. 10)", "setting": "TLR4; PMNs from C3H/HeN mice, LPS 1 μg/ml, HUVEC monolayer Transwell", "result": "did not affect the PMNs migration"},
      {"measurement": "LPS induced PMN migration (FIGS. 11-12)", "setting": "TLR4", "result": "enhances PMN migration induced by LPS"},
      {"measurement": "PMNs migration, TLR4(−/−) mice model (FIG. 10)", "setting": "[4]", "result": "did not affect the PMNs migration"}
    ]}
  ]
}
